Data: PMC6792352, “Limited Chemical Structural Diversity Found to Modulate Thyroid Hormone Receptor in the Tox21 Chemical Library” (Environmental Health Perspectives, 2019)
Structures can show the parent of a compound that is named as a salt.

Experiment: in vitro
Settings: rat, gh3-tre-luc cells, AC50 (uM) modified / 1000

Structure (SMILES)	CC50 at 24 h
Cc1ccc(N)nc1 [5-Methylpyridin-2-amine]	> 90 µM
NC(=S)NNC(N)=S [2,5-Dithiobiurea]	> 90 µM
CC(C)OC(=S)S [Proxan-sodium]	> 90 µM
CO[C@H]1[C@@H](O)C[C@H](O[C@H]2[C@@H](O)C[C@H](O[C@H]3[C@@H](O)C[C@H](O[C@H]4CC[C@@]5(C)[C@H](CC[C@@H]6[C@@H]5C[C@@H](O)[C@]5(C)[C@@H](C7=CC(=O)OC7)CC[C@]65O)C4)O[C@@H]3C)O[C@@H]2C)O[C@@H]1C [Methyldigoxin]	> 50 µM
CCCCCCCCCCCCCCCCCC(=O)OCC(CC)CCCC (centres unmarked) [2-Ethylhexyl octadecanoate]	> 90 µM
CCCC1CCOC(C)S1 (centres unmarked) [2-Methyl-4-propyl-1,3-oxathiane]	> 90 µM
CC(C)c1cccc(C(C)C)c1N [2,6-Diisopropylaniline]	> 90 µM
CNc1ncnc2nc[nH]c12 [(N-6)-Methyladenine]	> 90 µM
CC1(C)S[C@@H]2[C@H](NC(=O)[C@H](N)c3ccccc3)C(=O)N2[C@H]1C(=O)O [Ampicillin trihydrate]	> 90 µM
O=C(Oc1ccccc1)c1ccc2ccccc2c1O [Phenyl 1-hydroxy-2-naphthoate]	> 90 µM
CC(=O)OC(OC(C)=O)c1ccc([N+](=O)[O-])o1 [5-Nitro-2-furanmethanediol diacetate]	14 µM
O=C(N[C@H](CO)[C@H](O)c1ccc([N+](=O)[O-])cc1)C(Cl)Cl [Chloramphenicol]	> 90 µM
CCCC(C(=O)OCCN(CC)CC)(c1ccccc1)c1ccccc1 [Proadifen hydrochloride]	24.7 µM
NC(=O)CC[C@@H](N)C(=O)O [D-Glutamine]	> 50 µM
CC(=O)OCC(=O)[C@@]1(O)CC[C@H]2[C@@H]3CCC4=CC(=O)C=C[C@]4(C)[C@H]3[C@@H](O)C[C@@]21C [Prednisolone acetate]	> 50 µM
COc1ccc2c(c1)c1c3n2CCN(C)C3=NCC1 [Metralindole]	> 50 µM
C=CC(=O)NC(C)(C)CS(=O)(=O)O [2-Acrylamido-2-methyl-1-propanesulfonic acid]	> 90 µM
Cc1ccccc1C(=O)N1CC/C(=N\OS(=O)(=O)O)c2ccc(Cl)cc21 [Alilusem potassium]	> 50 µM
CCC(CC)Nc1ccc(C)c(C)c1 [N-(1-Ethylpropyl)-3,4-xylidine]	> 90 µM

Structure (SMILES)	CC50 at 24 h
O=c1c(-c2ccccc2)c1-c1ccccc1 [Diphenylcyclopropenone]	5.54 µM
C1CNCCN1 [Piperazine]	> 50 µM
Cc1cc(N)c2ccccc2[n+]1CCCCCCCCCC[n+]1c(C)cc(N)c2ccccc21 [Dequalinium dichloride]	12.4 µM
COc1ccc(C(=O)Nc2ccccc2CCC2CCCCN2C)cc1 (centres unmarked) [Encainide hydrochloride]	> 50 µM
CN(C(=O)CCCOc1ccc2[nH]c(=O)ccc2c1)C1CCCCC1 [Cilostamide]	> 50 µM
C=C(C)C(=O)OCCOCCOCCOC(=O)C(=C)C [Triethylene glycol dimethacrylate]	> 90 µM
CCCC(C)CO (centres unmarked) [2-Methyl-1-pentanol]	> 90 µM
c1ccc(CN(Cc2ccccc2)Cc2ccccc2)cc1 [Tribenzylamine]	> 90 µM
C=C/C(C)=C/C/C=C(\C)CCC=C(C)C [alpha-Farnesene]	> 90 µM
COCCOCCO [Diethylene glycol monomethyl ether]	> 90 µM
CC(C)C[C@H](NC(=O)[C@@H](O)[C@H](N)Cc1ccccc1)C(=O)O [Ubenimex hydrochloride]	1.62 µM
N#Cc1cccnc1 [3-Pyridinecarbonitrile]	> 90 µM
CC1(N)CCC(C(C)(C)N)CC1 (centres unmarked) [1,8-Diamino-p-menthane]	> 90 µM
O=C(O)CNC(=O)c1ccc(CO)o1 [5-(Hydroxymethyl-2-furoyl)glycine]	> 90 µM
CC/C=C\CCOC(=O)CC [(3Z)-Hex-3-en-1-yl propanoate]	> 90 µM
C=CCCCCCCCCO [9-Decen-1-ol]	> 90 µM
NC1(c2ccc(-c3nc4ccn5c(=O)[nH]nc5c4cc3-c3ccccc3)cc2)CCC1 [MK-2206]	16.8 µM
CC(CNC(=O)c1cccnc1)NC(=O)c1cccnc1 (centres unmarked) [Nicaraven]	> 50 µM
CCC[N+]1(C)CCCCC1 [1-Methyl-1-propylpiperidinium bromide]	> 90 µM

Structure (SMILES)	CC50 at 24 h
Cc1nc2ccccc2c(=O)o1 [2-Methyl-4H,3,1-benzoxazin-4-one]	> 90 µM
CC1=CC(O)CC(C)(C)C1 (centres unmarked) [3,5,5-Trimethyl-2-cyclohexen-1-ol]	> 90 µM
CCCCCCCCCCC=O [Undecanal]	> 90 µM
CN1CCC(CN2c3ccccc3Sc3ccccc32)C1 (centres unmarked) [Methdilazine hydrochloride]	8.75 µM
COC(=O)c1ccccc1O [Methyl salicylate]	> 90 µM
C=C1[C@H](CO)[C@@H](O)C[C@@H]1n1cnc2c(=O)[nH]c(N)nc21 [Entecavir]	> 50 µM
CCc1cc(C(N)=S)ccn1 [Ethionamide]	> 50 µM
CNC[C@H](O)c1cccc(O)c1 [Phenylephrine hydrochloride]	> 90 µM
COc1ccc([N+](=O)[O-])cc1N [2-Methoxy-5-nitroaniline]	> 90 µM
CC(=O)CC(C)=O [2,4-Pentanedione]	> 100 µM
CCCC[n+]1ccccc1 [1-Butylpyridinium hexafluorophosphate]	> 90 µM
O=C(CCCN1CCC2(CC1)C(=O)NCN2c1ccccc1)c1ccc(F)cc1 [Spiperone]	14.1 µM
CCCCCCCCCCCCCCCC(=O)OCC [Ethyl hexadecanoate]	> 90 µM
NCCN1CCOCC1 [2-Morpholinoethylamine]	> 90 µM
CC1(C)[C@H](C(=O)OCc2coc(Cc3ccccc3)c2)[C@@H]1/C=C1\CCSC1=O [Kadethrin]	> 90 µM
O=C(C1CCCCC1)N1CC(=O)N2CCc3ccccc3C2C1 (centres unmarked) [Praziquantel]	> 90 µM
Clc1nc(Cl)nc(Nc2ccccc2Cl)n1 [Anilazine]	> 90 µM
Cc1cc(-c2ccccc2)nnc1NCCN1CCOCC1 [Minaprine dihydrochloride]	> 50 µM
Cc1cc(-c2ccc(N=Nc3cc(S(=O)(=O)O)c4ccccc4c3N)c(C)c2)ccc1N=Nc1cc(S(=O)(=O)O)c2ccccc2c1N [C.I. Direct Red 2]	62.5 µM

Same assay, conditions: rat, gh3-tre-luc cells, AC50 (uM) modified / 1000, Tox21_110001=Tox21_111092; viability, 1 nM T3 present, 24 h

Structure (SMILES)	CC50 at 24 h
O=C(O)COc1ccccc1 [Phenoxyacetic acid]	> 50 µM

Same assay, conditions: rat, gh3-tre-luc cells, AC50 (uM) modified / 1000, Tox21_110001=Tox21_112016; viability, 1 nM T3 present, 24 h

Structure (SMILES)	CC50 at 24 h
CC(C)(C)NCC(O)c1cc(Cl)c(N)c(Cl)c1 (centres unmarked) [Clenbuterol]	31.8 µM

Same assay, conditions: rat, gh3-tre-luc cells, AC50 (uM) modified / 1000, Tox21_110001=Tox21_112623; viability, 1 nM T3 present, 24 h

Structure (SMILES)	CC50 at 24 h
CC(C)=CC1C(C(=O)OCN2C(=O)C3=C(CCCC3)C2=O)C1(C)C (centres unmarked) [Tetramethrin]	> 50 µM

Same assay, conditions: rat, gh3-tre-luc cells, AC50 (uM) modified / 1000, Tox21_110001=Tox21_113309; viability, 1 nM T3 present, 24 h

Structure (SMILES)	CC50 at 24 h
COc1ccc2c(C(=O)c3ccc(Cl)cc3)c(C)n(CC(=O)O)c2c1 [Clometacine]	> 50 µM

Same assay, conditions: rat, gh3-tre-luc cells, AC50 (uM) modified / 1000, Tox21_110001=Tox21_201462; viability, 1 nM T3 present, 24 h

Structure (SMILES)	CC50 at 24 h
O=[N+]([O-])c1ccc(O)c([N+](=O)[O-])c1 [2,4-Dinitrophenol]	> 90 µM

Same assay, conditions: rat, gh3-tre-luc cells, AC50 (uM) modified / 1000, Tox21_110001=Tox21_201486; viability, 1 nM T3 present, 24 h

Structure (SMILES)	CC50 at 24 h
Cn1c(-c2ccccc2)cc(-c2ccccc2)[n+]1C [Difenzoquat metilsulfate]	> 90 µM

Same assay, conditions: rat, gh3-tre-luc cells, AC50 (uM) modified / 1000, Tox21_110001=Tox21_201854; viability, 1 nM T3 present, 24 h

Structure (SMILES)	CC50 at 24 h
O=C(O)COc1ccccc1 [Phenoxyacetic acid]	> 90 µM

Same assay, conditions: rat, gh3-tre-luc cells, AC50 (uM) modified / 1000, Tox21_110001=Tox21_202319; viability, 1 nM T3 present, 24 h

Structure (SMILES)	CC50 at 24 h
N#CC(Br)Br [Dibromoacetonitrile]	> 90 µM

Same assay, conditions: rat, gh3-tre-luc cells, AC50 (uM) modified / 1000, Tox21_110001=Tox21_300030; viability, 1 nM T3 present, 24 h

Structure (SMILES)	CC50 at 24 h
O=[N+]([O-])c1ccc(O)c([N+](=O)[O-])c1 [2,4-Dinitrophenol]	56.2 µM

Same assay, conditions: rat, gh3-tre-luc cells, AC50 (uM) modified / 1000, Tox21_110001=Tox21_301017; viability, 1 nM T3 present, 24 h

Structure (SMILES)	CC50 at 24 h
CC(C)=CC1C(C(=O)OCN2C(=O)C3=C(CCCC3)C2=O)C1(C)C (centres unmarked) [Tetramethrin]	> 90 µM

Same assay, conditions: rat, gh3-tre-luc cells, AC50 (uM) modified / 1000, Tox21_110001=Tox21_301903; viability, 1 nM T3 present, 24 h

Structure (SMILES)	CC50 at 24 h
COP(=S)(Oc1cc(Cl)c(Br)cc1Cl)c1ccccc1 (centres unmarked) [Leptophos]	72.3 µM
